“And” between values parts separate entries of the source, which are not always exact repeats. Equal values may be shown once. Read-outs that look alike come from different tables or passages of the source.
How the values were obtained:
COX-1 = target: T1, COX-1 (Ovis aries, UniProt P05979); test: COX inhibitor screening assay, COX-1; assay type: biochemical
T1 construct: purchased
T1 sequence (P05979 25-600): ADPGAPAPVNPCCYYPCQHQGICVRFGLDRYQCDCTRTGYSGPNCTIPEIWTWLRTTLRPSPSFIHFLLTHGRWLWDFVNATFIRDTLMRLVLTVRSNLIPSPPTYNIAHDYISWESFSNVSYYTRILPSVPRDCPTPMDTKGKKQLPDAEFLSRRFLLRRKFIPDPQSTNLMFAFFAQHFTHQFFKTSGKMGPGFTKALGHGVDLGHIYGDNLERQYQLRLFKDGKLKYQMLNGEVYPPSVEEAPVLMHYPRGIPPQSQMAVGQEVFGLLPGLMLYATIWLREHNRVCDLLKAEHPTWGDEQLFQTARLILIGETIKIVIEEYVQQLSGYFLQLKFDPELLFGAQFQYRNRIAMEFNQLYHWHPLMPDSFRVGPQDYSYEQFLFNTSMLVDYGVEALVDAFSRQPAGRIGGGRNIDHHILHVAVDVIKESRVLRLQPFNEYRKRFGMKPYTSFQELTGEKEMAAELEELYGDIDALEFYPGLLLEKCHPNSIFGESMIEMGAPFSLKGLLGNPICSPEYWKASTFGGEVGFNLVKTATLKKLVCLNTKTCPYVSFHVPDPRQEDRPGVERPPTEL
Method: The inhibitory effects of the drugs MMF and MPA on COX-1 and COX-2 were measured using the COX inhibitor screening assay kit and LOX inhibitor screening kit. […] Briefly, the reaction buffer (Tris–HCl buffer, pH 8.0) containing 5 mM EDTA, 2 mM phenol, and 1 µM hematin was measured into test tubes. The test drugs were dissolved in dimethyl sulfoxide and added to the tubes to final concentrations of […]. COX-1 or COX-2 was added to the test tubes and preincubated for 10 min at 37 °C. Arachidonic acid was then added, and the tubes were incubated for 2 min at 37 °C. The enzyme immunoassay was used to measure the concentration of the product prostaglandin F2α (PGF2α). The estimated values were determined after comparison to the predetermined standard curve. The IC50 was determined after three different experiments. The selectivity index was calculated from Eq. (1):
(1) Selectivity index=IC50COX−1/IC50COX−2

[1] = system: carrageenan-induced paw edema; test: Carrageenan-induced rat paw edema test; assay type: in vivo; set-up: key to Tukey's test Summary: Significant (s); non-significant (ns); conditions: for Tukey's test Significant? / Tukey's test Summary: mean paw size 3–5 h; for Rat paw size: individual rats 1-7
Method: The in vivo assay was performed by the rat paw edema inhibition test as previously described ([Morris, 2003]; [Winter, Risley & Nuss, 1962]). Forty-nine male adult albino rats weighing […] were obtained from the Animal Breeding Center at the College of Veterinary Medicine, King Faisal University, and were randomly divided into seven groups (n = 7/group). The animal groups included the nontreated control group, carrageenan group, and five groups receiving carrageenan and treated with either indomethacin, celecoxib, or MMF at three doses (12.5, 25, and 50 mg/kg). All rats were allowed free access to food and water. All cages were kept in controlled rooms at 25 °C and exposed to a 12-h light/dark cycle. MMF and two reference drugs, indomethacin and celecoxib, were suspended in 1% NaCMC in normal saline. A 1% carrageenan solution in normal saline was injected into the subplantar area of the right hind paw of rats. One hour before injection of carrageenan, rats were given either indomethacin or celecoxib at a dose rate of 10 mg/kg or MMF at three dose levels of 12.5, 25, and 50 mg/kg by oral administration. […] The measurements were blind to avoid measurement bias. The King Faisal University Ethics Committee (approval no. KFU-REC/2020-10-11) approved all animal experiments. Since no samples were taken from rats, there were no anesthesia procedures. The size of the hind paw was only measured in non-anesthetized rats. At the end of the experiment, all rats were euthanized according to the regulations of the King Faisal University Ethics Committee by an overdose of pentobarbital (200 mg/kg IP) and decapitation. The effect of MMF at different doses on relieving rat paw edema was compared with the control and standard NSAID-treated groups. Significant differences were determined by one-way analysis of variance (ANOVA) with Tukey’s post hoc test. All steps were implemented using GraphPad prism software (GraphPad Software, La Jolla, CA, USA).

12-LOX = test: LOX inhibitor screening kit; assay type: biochemical
Method: The inhibitory effects of the drugs MMF and MPA on COX-1 and COX-2 were measured using the COX inhibitor screening assay kit and LOX inhibitor screening kit. The assay was performed according to the manufacturer’s directions and previously described methods ([Chowdhury et al., 2008]; [Lee et al., 2004]). Briefly, the reaction buffer (Tris–HCl buffer, pH 8.0) containing 5 mM EDTA, 2 mM phenol, and 1 µM hematin was measured into test tubes. The test drugs were dissolved in dimethyl sulfoxide and added to the tubes to final concentrations of […]. COX-1 or COX-2 was added to the test tubes and preincubated for 10 min at 37 °C. Arachidonic acid was then added, and the tubes were incubated for 2 min at 37 °C. The enzyme immunoassay was used to measure the concentration of the product prostaglandin F2α (PGF2α). The estimated values were determined after comparison to the predetermined standard curve. The IC50 was determined after three different experiments. The selectivity index was calculated from Eq. (1): […]

[2] = system: atopic dermatitis and vitiligo; conditions: cited from earlier work
[3] = Indomethacin vs. MMF 12.5 mg/kg

For `COc1c(C)c2c(c(O)c1C/C=C(\C)CCC(=O)OCCN1CCOCC1)C(=O)OC2` [Mycophenolate mofetil], the IC50 (COX-1) was 5.53 µM, the “Rat paw size at 3, 4 and 5 h after treatment” value ([1]; 12.5, 25, 50 mg/kg MMF) was “dose-dependent decrease in edema” and the “Rat paw edema 2–5 h after drug administration” value ([1]; 12.5, 25 and 50 mg/kg MMF oral) was “significant decrease”. For the same compound, the “Tukey's test Significant?” value ([1]; Carrageenan vs. MMF 12.5 mg/kg) was “Yes”, the “Tukey's test Summary” value ([1]; Carrageenan vs. MMF 12.5 mg/kg) was “s” and the “Tukey's test Significant?” value ([1]; Carrageenan vs. MMF 25 mg/kg) was “Yes”. The “Tukey's test Summary” value ([1]; Carrageenan vs. MMF 25 mg/kg) was “s”, the “Tukey's test Significant?” value ([1]; Carrageenan vs. MMF 50 mg/kg) was “Yes” and the “Tukey's test Summary” value ([1]; Carrageenan vs. MMF 50 mg/kg) was “s”. The “Tukey's test Significant?” value ([1]; Celecoxib vs. MMF 12.5 mg/kg) was “No”, the “Tukey's test Summary” value ([1]; Celecoxib vs. MMF 12.5 mg/kg) was “ns” and the “Tukey's test Significant?” value ([1]; Celecoxib vs. MMF 25 mg/kg) was “No”. For the same compound, the “Tukey's test Summary” value ([1]; Celecoxib vs. MMF 25 mg/kg) was “ns”, the “Tukey's test Significant?” value ([1]; Celecoxib vs. MMF 50 mg/kg) was “No” and the “Tukey's test Summary” value ([1]; Celecoxib vs. MMF 50 mg/kg) was “ns”. For the same compound, the “Tukey's test Significant?” value [1, 3] was “No”, the “Tukey's test Summary” value [1, 3] was “ns” and the “Tukey's test Significant?” value ([1]; Indomethacin vs. MMF 25 mg/kg) was “No”. For the same compound, the “Tukey's test Summary” value ([1]; Indomethacin vs. MMF 25 mg/kg) was “ns”, the Rat paw size ([1]; MMF 12.5 mg Kg oral, Time (h) 1) was 0.75 cm (3×) and 0.73 cm (3×) and 0.7 cm and the Rat paw size ([1]; MMF 12.5 mg Kg oral, Time (h) 2) was 0.75 cm (3×) and 0.76 cm (3×) and 0.8 cm. The Rat paw size ([1]; MMF 12.5 mg Kg oral, Time (h) 3) was 0.75 cm and 0.8 cm, the Rat paw size ([1]; MMF 25 mg/Kg oral, Time (h) 1) was 0.74 cm (2×) and 0.75 cm (4×) and 0.77 cm and the Rat paw size ([1]; MMF 25 mg/Kg oral, Time (h) 2) was 0.7 cm (3×) and 0.65 cm and 0.71 cm and 0.75 cm and 0.69 cm. For the same compound, the Rat paw size ([1]; MMF 25 mg/Kg oral, Time (h) 3) was 0.59 cm and 0.6 cm and 0.55 cm (2×) and 0.5 cm and 0.65 cm and 0.57 cm, the Rat paw size ([1]; MMF 25 mg/Kg oral, Time (h) 4) was 0.46 cm and 0.5 cm (2×) and 0.45 cm (2×) and 0.47 cm and 0.48 cm and the Rat paw size ([1]; MMF 25 mg/Kg oral, Time (h) 5) was 0.45 cm (5×) and 0.5 cm and 0.4 cm. The Rat paw size ([1]; MMF 25 mg/Kg oral, Time (h) 6) was 0.57 cm and 0.6 cm (2×) and 0.5 cm and 0.65 cm and 0.55 cm and 0.54 cm, the Rat paw size ([1]; MMF 50mg/kg oral, Time (h) 1) was 0.75 cm and the Rat paw size ([1]; MMF 50mg/kg oral, Time (h) 2) was 0.75 cm and 0.7 cm (3×) and 0.65 cm and 0.66 cm and 0.68 cm. The Rat paw size ([1]; MMF 50mg/kg oral, Time (h) 3) was 0.65 cm (2×) and 0.6 cm (2×) and 0.55 cm and 0.62 cm and 0.58 cm, the Rat paw size ([1]; MMF 50mg/kg oral, Time (h) 4) was 0.55 cm (2×) and 0.5 cm (2×) and 0.52 cm and 0.53 cm and 0.51 cm and the Rat paw size ([1]; MMF 50mg/kg oral, Time (h) 5) was 0.45 cm (3×) and 0.5 cm and 0.46 cm (3×). The Rat paw size ([1]; MMF 50mg/kg oral, Time (h) 6) was 0.6 cm (3×) and 0.5 cm and 0.65 cm and 0.56 cm and 0.58 cm, the “Rat paw edema after treatment” value ([1]; MMF 12.5–50 mg/kg, indomethacin or celecoxib 10 mg/kg oral) was “significantly relieved” and the “Most effective dose in the rat paw edema test” value ([1]; oral) was 50 mg/kg. For the same compound, the IC50 (12-LOX; printed as 5-LOX in abstract and b38, read-out: IC50 5-LOX) was 4.47 µM, the IC50 (12-LOX; read-out: IC50 12-LOX) was 4.47 µM and the “Treatment of atopic dermatitis” value ([2]; oral 1–2 g daily for 12 weeks, ref Grundmann-Kollmann et al., 2001, Neuber et al., 2000) was “highly effective”. The “Tolerability of high topical concentration” value ([2]; topical 15% MMF, ref Handjani et al., 2017) was “well tolerated” and the Treatment of vitiligo ([2]; topical application of 15% MMF, ref Handjani et al., 2017) was “highly effective”.

Source: publication PMC8092108, “Mycophenolate suppresses inflammation by inhibiting prostaglandin synthases: a study of molecular and experimental drug repurposing” (PeerJ, 2021)
